Data taken from patent publication US9695155B2, “Herbicidal substituted pyrimidinyloxy benzene compounds” (E. I. DU PONT DE NEMOURS AND COMPANY, priority 2013, dated 2017).

Tests used:
barnyardgrass [1] = test: Test A postemergence; format: in vivo, Echinochloa crus-galli; settings: 0 to 100 scale where 0 is no effect and 100 is complete control; for Barnyardgrass plant response rating: 125 g ai/ha; for Plant response rating, Barnyardgrass: 500 g ai/ha
Procedure, shortened: (§1)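 Injury scores run from 0, no effect, to 100, complete control, judged by eye against untreated plants roughly 10 days after treatment. Chemicals carried a surfactant in a non-phytotoxic solvent and went onto loam–sand soil preemergence or onto one- to two-leaf seedlings postemergence.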

corn [2] = test: Test A postemergence; format: in vivo, Zea mays; settings: 0 to 100 scale where 0 is no effect and 100 is complete control; for Corn plant response rating: 125 g ai/ha; for Plant response rating, Corn: 500 g ai/ha
Procedure, shortened: as §1

rice = test: Test B flooded paddy test; format: in vivo, Oryza sativa; settings: Flood, 250 g ai/ha; 0 to 100 scale where 0 is no effect and 100 is complete control
Procedure, shortened: (§2)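 Post-emergence paddy-water application at the 2-leaf stage, with 3 cm flood kept for the whole test. Response was judged visually relative to controls after 13 to 15 greenhouse days, 0 indicating no effect and 100 complete control.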

Heteranthera limosa = test: Test B flooded paddy test; format: in vivo; settings: Flood, 250 g ai/ha; 0 to 100 scale where 0 is no effect and 100 is complete control
Procedure, shortened: as §2

barnyardgrass [3] = test: Test B flooded paddy test; format: in vivo, Echinochloa crus-galli; settings: Flood, 250 g ai/ha; 0 to 100 scale where 0 is no effect and 100 is complete control
Procedure, shortened: as §2

Italian ryegrass = test: Test C postemergence; format: in vivo, Lolium multiflorum; settings: for Plant response rating (0 to 100), Ryegrass, Italian: 0 is no effect, 100 is complete control; for Ryegrass, Italian plant response rating: 31 g ai/ha; for Ryegrass, Italian plant response rating / Plant response rating, Ryegrass, Italian: scale 0 to 100 (0 no effect, 100 complete control)
Procedure, shortened: (§3)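 Rated visually on 0–100 (100 = complete control) after 13–15 days under glass. Treatments went onto freshly seeded loam/sand soil or onto emerged plants at the 1- to 4-leaf stage, using a surfactant-containing solvent formulation.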

galium = test: Test C postemergence; format: in vivo, Galium aparine; settings: for Plant response rating (0 to 100), Galium: 0 is no effect, 100 is complete control; for Galium plant response rating: 31 g ai/ha; for Galium plant response rating / Plant response rating, Galium: scale 0 to 100 (0 no effect, 100 complete control)
Procedure, shortened: as §3

corn [4] = test: Test C postemergence; format: in vivo, Zea mays; settings: for Plant response rating (0 to 100), Corn: 0 is no effect, 100 is complete control; for Corn plant response rating: 31 g ai/ha; for Corn plant response rating / Plant response rating, Corn: scale 0 to 100 (0 no effect, 100 complete control)
Procedure, shortened: as §3

lambsquarters = test: Test C postemergence; format: in vivo, Chenopodium album; settings: for Plant response rating (0 to 100), Lambsquarters: 0 is no effect, 100 is complete control; for Lambsquarters plant response rating: 31 g ai/ha; for Lambsquarters plant response rating / Plant response rating, Lambsquarters: scale 0 to 100 (0 no effect, 100 complete control)
Procedure, shortened: as §3

pigweed = test: Test C postemergence; format: in vivo, Amaranthus retroflexus; settings: for Plant response rating (0 to 100), Pigweed: 0 is no effect, 100 is complete control; for Pigweed plant response rating: 31 g ai/ha; for Pigweed plant response rating / Plant response rating, Pigweed: scale 0 to 100 (0 no effect, 100 complete control)
Procedure, shortened: as §3

waterhemp = test: Test C postemergence; format: in vivo, Amaranthus rudis; settings: for Plant response rating (0 to 100), Waterhemp: 0 is no effect, 100 is complete control; for Waterhemp plant response rating: 31 g ai/ha; for Waterhemp plant response rating / Plant response rating, Waterhemp: scale 0 to 100 (0 no effect, 100 complete control)
Procedure, shortened: as §3

[5] = postemergence, visual rating, 13 to 15 days
[6] = 125 g ai/ha, postemergence, visual rating
[7] = Postemergence, 62 g ai/ha, 13 to 15 days

| Structure (SMILES) | Barnyardgrass plant response rating (barnyardgrass [1]) | Plant response rating, Barnyardgrass (barnyardgrass [1]) | Corn plant response rating (corn [2]) | Plant response rating, Corn (corn [2]) | Plant response rating, Rice (rice) | Plant response rating, Ducksalad (Heteranthera limosa) | Plant response rating, Barnyardgrass (barnyardgrass [3]) | Plant response rating (0 to 100), Ryegrass, Italian (Italian ryegrass; 16 g ai/ha, postemergence) | Ryegrass, Italian plant response rating (Italian ryegrass; [5]) | Plant response rating (0 to 100), Galium (galium; 16 g ai/ha, postemergence) | Galium plant response rating (galium; [5]) | Plant response rating (0 to 100), Corn (corn [4]; 16 g ai/ha, postemergence) | Corn plant response rating (corn [4]; [5]) | Plant response rating (0 to 100), Lambsquarters (lambsquarters; 16 g ai/ha, postemergence) | Lambsquarters plant response rating (lambsquarters; [5]) | Plant response rating (0 to 100), Pigweed (pigweed; 16 g ai/ha, postemergence) | Pigweed plant response rating (pigweed; [5]) | Plant response rating (0 to 100), Waterhemp (waterhemp; 16 g ai/ha, postemergence) | Waterhemp plant response rating (waterhemp; [5]) | Plant response rating, Ryegrass, Italian (Italian ryegrass; [6]) | other results |
| --- | --- | --- | --- | --- | --- | --- | --- | --- | --- | --- | --- | --- | --- | --- | --- | --- | --- | --- | --- | --- | --- |
| O=Cc1cccc(Oc2ncc(I)cn2)c1-n1cc(Br)cn1 [Compound 172] | 30 | 60 | 0 | 20 | 0 | 0 | 0 | 0 | 0 | 0 | 0 | 0 | 0 | 0 | 0 | 10 | 10 | 5 | 5 |  | Plant response rating (0 to 100), Ryegrass, Italian (Italian ryegrass; 8 g ai/ha, postemergence): 0; Plant response rating, Ryegrass, Italian (Italian ryegrass; Postemergence, 62 g ai/ha): 5; Plant response rating (0 to 100), Galium (galium; 8 g ai/ha, postemergence): 0; Plant response rating, Galium (galium; Postemergence, 62 g ai/ha): 10; Plant response rating (0 to 100), Corn (corn [4]; 8 g ai/ha, postemergence): 0; Plant response rating, Corn (corn [4]; Postemergence, 62 g ai/ha): 0; Plant response rating (0 to 100), Lambsquarters (lambsquarters; 8 g ai/ha, postemergence): 0; Plant response rating, Lambsquarters (lambsquarters; Postemergence, 62 g ai/ha): 0; Plant response rating (0 to 100), Pigweed (pigweed; 8 g ai/ha, postemergence): 5; Plant response rating, Pigweed (pigweed; Postemergence, 62 g ai/ha): 5; Plant response rating (0 to 100), Waterhemp (waterhemp; 8 g ai/ha, postemergence): 0; Plant response rating, Waterhemp (waterhemp; Postemergence, 62 g ai/ha): 5 |
| Fc1cccc(Oc2ncc(Cl)cn2)c1-n1cc(Cl)cn1 [Compound 177] | 40 | 100 | 40 | 70 | 15 | 90 | 30 | 0 | 0 | 60 | 50 | 5 | 5 | 60 | 65 | 75 | 80 | 70 | 75 | 0 | Plant response rating, Ryegrass, Italian (Italian ryegrass; Postemergence, 62 g ai/ha): 0; Plant response rating, Galium (galium; [6]): 98; Plant response rating, Galium (galium; Postemergence, 62 g ai/ha): 85; Plant response rating, Corn (corn [4]; [6]): 10; Plant response rating, Corn (corn [4]; Postemergence, 62 g ai/ha): 10; Plant response rating, Lambsquarters (lambsquarters; [6]): 90; Plant response rating, Lambsquarters (lambsquarters; Postemergence, 62 g ai/ha): 75; Plant response rating, Pigweed (pigweed; [6]): 95; Plant response rating, Pigweed (pigweed; Postemergence, 62 g ai/ha): 85; Plant response rating, Waterhemp (waterhemp; [6]): 100; Plant response rating, Waterhemp (waterhemp; Postemergence, 62 g ai/ha): 95 |
| Clc1cnc(Oc2cccc(Cl)c2-n2cc(I)cn2)nc1 [Compound 181] | 60 | 90 | 40 | 40 | 0 | 75 | 0 | 0 | 0 | 60 | 65 | 5 | 5 | 75 | 100 | 85 | 98 | 80 | 85 | 10 | Plant response rating, Ryegrass, Italian (Italian ryegrass; Postemergence, 62 g ai/ha): 5; Plant response rating, Galium (galium; [6]): 80; Plant response rating, Galium (galium; Postemergence, 62 g ai/ha): 70; Plant response rating, Corn (corn [4]; [6]): 5; Plant response rating, Corn (corn [4]; Postemergence, 62 g ai/ha): 5; Plant response rating, Lambsquarters (lambsquarters; [6]): 100; Plant response rating, Lambsquarters (lambsquarters; Postemergence, 62 g ai/ha): 100; Plant response rating, Pigweed (pigweed; [6]): 98; Plant response rating, Pigweed (pigweed; Postemergence, 62 g ai/ha): 85; Plant response rating, Waterhemp (waterhemp; [6]): 98; Plant response rating, Waterhemp (waterhemp; Postemergence, 62 g ai/ha): 85 |
| FC(F)(F)c1cnn(-c2c(Br)cccc2Oc2ncc(Cl)cn2)c1 [Compound 191] | 50 | 90 | 20 | 40 | 0 | 95 | 40 | 0 | 0 | 80 | 80 | 5 | 5 | 85 | 60 | 95 | 85 | 80 | 85 | 5 | Plant response rating, Ryegrass, Italian (Italian ryegrass; Postemergence, 62 g ai/ha): 5; Plant response rating, Galium (galium; [6]): 98; Plant response rating, Galium (galium; Postemergence, 62 g ai/ha): 98; Plant response rating, Corn (corn [4]; [6]): 10; Plant response rating, Corn (corn [4]; Postemergence, 62 g ai/ha): 10; Plant response rating, Lambsquarters (lambsquarters; [6]): 95; Plant response rating, Lambsquarters (lambsquarters; Postemergence, 62 g ai/ha): 75; Plant response rating, Pigweed (pigweed; [6]): 98; Plant response rating, Pigweed (pigweed; Postemergence, 62 g ai/ha): 95; Plant response rating, Waterhemp (waterhemp; [6]): 95; Plant response rating, Waterhemp (waterhemp; Postemergence, 62 g ai/ha): 95 |
| FC(F)c1cnn(-c2c(Cl)cccc2Oc2ncc(Cl)cn2)c1 [Compound 192] | 60 | 90 | 10 | 60 | 0 | 90 | 0 | 0 | 0 | 60 | 80 | 0 | 5 | 10 | 25 | 60 | 65 | 40 | 50 | 5 | Plant response rating, Ryegrass, Italian (Italian ryegrass; [7]): 5; Plant response rating, Galium (galium; [6]): 85; Plant response rating, Galium (galium; [7]): 80; Plant response rating, Corn (corn [4]; [6]): 5; Plant response rating, Corn (corn [4]; [7]): 5; Plant response rating, Lambsquarters (lambsquarters; [6]): 90; Plant response rating, Lambsquarters (lambsquarters; [7]): 90; Plant response rating, Pigweed (pigweed; [6]): 70; Plant response rating, Pigweed (pigweed; [7]): 80; Plant response rating, Waterhemp (waterhemp; [6]): 85; Plant response rating, Waterhemp (waterhemp; [7]): 65 |
| Clc1cnc(Oc2cccc(Cl)c2-n2cc(Cl)cn2)nc1 [Compound 220] | 90 | 100 | 40 | 70 | 0 | 100 | 0 | 0 | 0 | 50 | 70 | 5 | 10 | 15 | 50 | 65 | 75 | 65 | 70 | 10 | Plant response rating, Ryegrass, Italian (Italian ryegrass; [7]): 5; Plant response rating, Galium (galium; [6]): 95; Plant response rating, Galium (galium; [7]): 80; Plant response rating, Corn (corn [4]; [6]): 10; Plant response rating, Corn (corn [4]; [7]): 10; Plant response rating, Lambsquarters (lambsquarters; [6]): 75; Plant response rating, Lambsquarters (lambsquarters; [7]): 55; Plant response rating, Pigweed (pigweed; [6]): 90; Plant response rating, Pigweed (pigweed; [7]): 85; Plant response rating, Waterhemp (waterhemp; [6]): 85; Plant response rating, Waterhemp (waterhemp; [7]): 75 |
